How the values were obtained:
[1] = biological target: adenosine kinase; experiment: adenosine kinase (AK) inhibition; assay type: biochemical, pig heart or recombinant human; conditions: 0.5 μM [U-14C] adenosine, pH 7.0, 20 minutes
Protocol: Adenosine kinase activity was measured essentially as described by Yamada et al. (Yamada, Y., Goto, H., Ogasawara, N. (1988) Biochim. Biophys. Acta 660, 36-43.) with a few minor modifications. […] Natl. Acad. Sci. […] The reactions were incubated for 20 minutes at […] The assay was quenched upon spotting 30 μL aliquots onto 2 cm^2 pieces of Whatman DE81 anion exchange paper. The papersquares were washed for 3 minutes in 6 L distilled/deionized water to remove the unreacted adenosine. The washed squares were rinsed in 95% ethanol and dried in an oven at 100° C. for 10 minutes. The amount of ^14 C-AMP was quantified by scintillation counting.

[2] = test system: male SA rats; experiment: rat skin lesion model, inhibition of neutrophil accumulation induced by carrageenan; assay type: in vivo
Protocol: The dorsal skin of male SA rats was shaved and carrageenan (Type λ) or phosphate-buffered saline was injected intradermally. Three hours later, the injection sites were biopsied and weighed. Neutrophil content of the skin biopsies was measured as the quantity of myeloperoxidase (MPO) present in a tissue homogenate. The excised, weighed skin pieces were placed in 4 ml 0.5% mixed alkyl trimethylammonium bromide and homogenized at the highest speed for 15 seconds in a Polytron homogenizer (Brinkmann Instruments, Westbury, N.Y.). Lipids were extracted by adding 1 ml of dichloromethane to the homogenate, vortexing vigorously, and centrifuging at 1000 g, 5° C. for 15 min. Fifty μl of each supernatant was added in duplicate to a 96 well assay plate, along with dilutions of human myeloperoxidase standard. Potassium phosphate buffer (pH 6.1) containing 0.36 mg/ml of o-dianisidine dihydrochloride and 0.001% hydrogen peroxide was added (200 μl/well), and the absorbance at 450 nm was read after 5 min incubation at room temperature. The myeloperoxidase content of each skin piece was calculated from a standard curve constructed using least-square regression, and expressed as units of MPO/g of tissue.
AK inhibitors were administered orally using polyethylene glycol-400 as vehicle or intraperitoneally using dimethylsulfoxide as vehicle, at indicated time before skin lesion injection. For each experiment, the average of all values from saline-induced lesions was calculated. This baseline value was then subtracted from values obtained from carrageenan-induced lesions. Percent inhibition for AK inhibitors were calculated from these baseline-corrected values.

O[C@@H]1[C@H](O)CO[C@H]1n1cc(-c2ccccc2)c2c(Nc3ccc(F)cc3)ncnc21 [compound 28]
IC50 [1]: 28 nM
% inhibition of neutrophil accumulation ([2]; i.p., pretreatment 30 min, 3 mg/kg): 18%
% inhibition of neutrophil accumulation ([2]; i.p., pretreatment 30 min, 10 mg/kg): 62%
% inhibition of neutrophil accumulation ([2]; i.p., pretreatment 30 min, 30 mg/kg): 79%
% inhibition of neutrophil accumulation ([2]; i.p., pretreatment 60 min, 10 mg/kg): 49%
% inhibition of neutrophil accumulation ([2]; i.p., pretreatment 120 min, 10 mg/kg): 60%
% inhibition of neutrophil accumulation ([2]; i.p., pretreatment 240 min, 10 mg/kg): 28%
% inhibition of neutrophil accumulation ([2]; p.o., pretreatment 60 min, 10 mg/kg): 28%
% inhibition of neutrophil accumulation ([2]; p.o., pretreatment 60 min, 20 mg/kg): 40%
% inhibition of neutrophil accumulation ([2]; p.o., pretreatment 120 min, 20 mg/kg): 84%
% inhibition of neutrophil accumulation ([2]; p.o., pretreatment 240 min, 20 mg/kg): 77%
% inhibition of neutrophil accumulation ([2]; p.o., pretreatment 420 min, 20 mg/kg): 20%
